# *1 amine or outer side, *2 acyl side, *3 side chain or, on linkers, in order; H or OH if unused. Where a SMILES comes first, the peptide text is derived from it. Side-chain parts run from the residue outwards. [ ]: non-standard residue; d: D form. The star is where a group is joined. C16 diacid = O=C(O)CCCCCCCCCCCCCCC(=O)*; γGlu = O=C(O)[C@H](CCC(=O)[*:2])N[*:1]; NMeI = CC[C@H](C)[C@H](NC)C(=O)O; Api = NC1(C(=O)O)CCNCC1; Dap = NC[C@H](N)C(=O)O; Aib = CC(C)(N)C(=O)O
# Legend:
# human CRF2a receptor = target: T1, human CRF2a receptor (Homo sapiens, UniProt Q13324); assay: Activity at human CRF2a receptor, cAMP functional assay in TeloHEAC cells; assay type: cell-based; conditions: TeloHEAC cells stably expressing human CRF2a receptor, relative to urocortin 2 (100 nM = 100%)
# T1 construct: expressed in transfected cells; host or cells: TeloHEAC cells
# T1 sequence (Q13324 1-411): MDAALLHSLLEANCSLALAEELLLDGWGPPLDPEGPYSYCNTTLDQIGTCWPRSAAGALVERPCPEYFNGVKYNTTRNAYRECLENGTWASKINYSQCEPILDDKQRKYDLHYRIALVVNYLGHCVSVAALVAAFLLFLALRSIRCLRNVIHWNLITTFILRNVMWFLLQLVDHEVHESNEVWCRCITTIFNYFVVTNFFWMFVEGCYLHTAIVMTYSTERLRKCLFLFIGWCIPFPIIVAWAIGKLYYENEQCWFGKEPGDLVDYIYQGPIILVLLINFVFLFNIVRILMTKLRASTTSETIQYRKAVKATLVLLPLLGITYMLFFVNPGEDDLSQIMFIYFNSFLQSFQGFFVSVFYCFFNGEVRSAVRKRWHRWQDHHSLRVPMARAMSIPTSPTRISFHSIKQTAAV
# Procedure, shortened: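 TeloHEAC cells stably expressing human CRF2a (10000 cells/well) were treated with 16-point 1:2 compound dilutions in HBSS/20 mM HEPES with IBMX for 30 min at 37° C. cAMP was read by HTRF (665/620 nm ratio). EC50 was the concentration giving 50% activation, with 100 nM urocortin 2 set as 100%.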
# CFR1R receptor = target: T2, CFR1R receptor (Homo sapiens, UniProt P34998); assay: Activity at anti-target CFR1R receptor, cAMP assay in CRF1R-overexpression CHO-K1 cells; assay type: cell-based; conditions: 100% = Sauvagine at 100 nM; for EC50: cAMP
# T2 construct: host or cells: CHO-K1 (clone 2)
# T2 sequence (P34998 24-415): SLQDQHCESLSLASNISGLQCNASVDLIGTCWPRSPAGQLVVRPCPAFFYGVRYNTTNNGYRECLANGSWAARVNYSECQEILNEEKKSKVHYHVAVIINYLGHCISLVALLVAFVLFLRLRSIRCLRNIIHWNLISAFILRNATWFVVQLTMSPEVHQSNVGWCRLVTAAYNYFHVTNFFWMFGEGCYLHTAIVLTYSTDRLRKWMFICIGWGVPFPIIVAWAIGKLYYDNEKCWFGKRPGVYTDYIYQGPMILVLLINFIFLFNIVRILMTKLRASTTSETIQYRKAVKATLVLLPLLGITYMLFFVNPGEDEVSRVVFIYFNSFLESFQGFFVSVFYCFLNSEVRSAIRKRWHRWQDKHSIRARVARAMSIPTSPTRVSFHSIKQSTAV
# Procedure, shortened: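 Signal is normalised to 100 nM Sauvagine, taken as 100% activation, in clone 2 cells plated at a final 4000 cells/well from frozen stocks.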
SMILES,EC50 (human CRF2a receptor),Emax (% I) (CFR1R receptor),EC50 (CFR1R receptor)
CC[C@H](C)[C@H](NC)C(=O)N[C@H](C(=O)N[C@@H](CC(C)C)C(=O)N[C@@H](CO)C(=O)N[C@@H](CC(C)C)C(=O)N[C@@H](CC(=O)O)C(=O)N[C@@H](C(=O)N1CCC[C@H]1C(=O)N[C@H](C(=O)N[C@@H](CCCCN)C(=O)N[C@@H](CC(C)C)C(=O)N[C@@H](CCCCNC(=O)CC[C@H](NC(=O)CCCCCCCCCCCCCCC(=O)O)C(=O)O)C(=O)N[C@@H](CCCCN)C(=O)N[C@H](C(=O)N[C@@H](CC(C)C)C(=O)N[C@@H](CC(C)C)C(=O)N[C@@H](CCC(=O)O)C(=O)N[C@@H](CCC(N)=O)C(=O)N[C@@H](CCC(=O)O)C(=O)N[C@@H](CCCCN)C(=O)N[C@@H](CCC(N)=O)C(=O)N[C@@H](CCCCN)C(=O)N[C@@H](CCCCN)C(=O)N[C@@H](CCC(N)=O)C(=O)N[C@@H](CCCNC(=N)N)C(=O)N[C@@H](CCC(=O)O)C(=O)N[C@@H](CCC(N)=O)C(=O)N[C@@H](C)C(=O)N[C@@H](CCC(=O)O)C(=O)N[C@H](C(=O)N[C@@H](CC(N)=O)C(=O)N[C@@H](CN)C(=O)N[C@@H](CCC(N)=O)C(=O)N[C@H](C(=O)N[C@@H](CC(C)C)C(=O)N[C@@H](C)C(=O)N[C@@H](CCC(N)=O)C(=O)N[C@H](C(N)=O)C(C)C)[C@@H](C)CC)[C@@H](C)O)[C@@H](C)CC)[C@@H](C)CC)C(C)C)C(C)C [compound 70] (H-[NMeI]VLSLD[dV]PIKLK([γGlu-C16 diacid])KILLEQEKQKKQREQAETN[Dap]QILAQV-NH2),0.17 nM,0 % I,> 250 nM
CC[C@H](C)[C@H](NC)C(=O)N[C@H](C(=O)N[C@@H](CC(C)C)C(=O)N[C@@H](CO)C(=O)N[C@@H](CC(C)C)C(=O)N[C@@H](CC(=O)O)C(=O)N[C@@H](C(=O)N1CCC[C@H]1C(=O)N[C@H](C(=O)N[C@@H](CCCCN)C(=O)N[C@@H](CC(C)C)C(=O)N[C@@H](CCCCNC(=O)CC[C@H](NC(=O)CCCCCCCCCCCCCCC(=O)O)C(=O)O)C(=O)N[C@@H](CCCCN)C(=O)N[C@H](C(=O)N[C@@H](CC(C)C)C(=O)N[C@@H](CC(C)C)C(=O)N[C@@H](CCC(=O)O)C(=O)N[C@@H](CCC(N)=O)C(=O)N[C@@H](CCC(=O)O)C(=O)N[C@@H](CCCCN)C(=O)N[C@@H](CCC(N)=O)C(=O)N[C@@H](CCCCN)C(=O)N[C@@H](CCCCN)C(=O)N[C@@H](CCC(N)=O)C(=O)N[C@@H](CCCNC(=N)N)C(=O)N[C@@H](CCC(=O)O)C(=O)N[C@@H](CCC(N)=O)C(=O)N[C@@H](C)C(=O)N[C@@H](CCC(=O)O)C(=O)N[C@H](C(=O)N[C@@H](CC(N)=O)C(=O)N[C@@H](CCC(=O)O)C(=O)N[C@@H](CCC(N)=O)C(=O)N[C@H](C(=O)N[C@@H](CC(C)C)C(=O)N[C@@H](C)C(=O)N[C@@H](CCC(N)=O)C(=O)N[C@H](C(N)=O)C(C)C)[C@@H](C)CC)[C@@H](C)O)[C@@H](C)CC)[C@@H](C)CC)C(C)C)C(C)C [compound 71] (H-[NMeI]VLSLD[dV]PIKLK([γGlu-C16 diacid])KILLEQEKQKKQREQAETNEQILAQV-NH2),0.21 nM,−4 % I,> 250 nM
CC[C@H](C)[C@H](NC)C(=O)N[C@H](C(=O)N[C@@H](CC(C)C)C(=O)N[C@@H](CO)C(=O)N[C@@H](CC(C)C)C(=O)N[C@@H](CC(=O)O)C(=O)N[C@@H](C(=O)N1CCC[C@H]1C(=O)N[C@H](C(=O)N[C@@H](CCCCN)C(=O)N[C@@H](CC(C)C)C(=O)N[C@@H](CCCCNC(=O)CC[C@H](NC(=O)CCCCCCCCCCCCCCC(=O)O)C(=O)O)C(=O)N[C@@H](CCCCN)C(=O)N[C@H](C(=O)N[C@@H](CC(C)C)C(=O)N[C@@H](CC(C)C)C(=O)N[C@@H](CCC(=O)O)C(=O)N[C@@H](CCC(N)=O)C(=O)N[C@@H](CCC(=O)O)C(=O)N[C@@H](CCCCN)C(=O)N[C@@H](CCC(N)=O)C(=O)N[C@@H](CCCCN)C(=O)N[C@@H](CCCCN)C(=O)N[C@@H](CCC(N)=O)C(=O)N[C@@H](CCCNC(=N)N)C(=O)N[C@@H](CCC(=O)O)C(=O)N[C@@H](CCC(N)=O)C(=O)N[C@@H](C)C(=O)N[C@@H](CCC(=O)O)C(=O)N[C@H](C(=O)N[C@@H](CC(N)=O)C(=O)NC1(C(=O)N[C@@H](CCC(N)=O)C(=O)N[C@H](C(=O)N[C@@H](CC(C)C)C(=O)N[C@@H](C)C(=O)N[C@@H](CCC(N)=O)C(=O)N[C@H](C(N)=O)C(C)C)[C@@H](C)CC)CCNCC1)[C@@H](C)O)[C@@H](C)CC)[C@@H](C)CC)C(C)C)C(C)C [compound 72] (H-[NMeI]VLSLD[dV]PIKLK([γGlu-C16 diacid])KILLEQEKQKKQREQAETN[Api]QILAQV-NH2),0.14 nM,18 % I,> 250 nM

# Other lines, results leading:
EC50 (human CRF2a receptor),Emax (% I) (CFR1R receptor),EC50 (CFR1R receptor),SMILES
0.15 nM,7 % I,> 250 nM,CC[C@H](C)[C@H](NC)C(=O)N[C@H](C(=O)N[C@@H](CC(C)C)C(=O)N[C@@H](CO)C(=O)N[C@@H](CC(C)C)C(=O)N[C@@H](CC(=O)O)C(=O)N[C@@H](C(=O)N1CCC[C@H]1C(=O)N[C@H](C(=O)N[C@@H](CCCCN)C(=O)N[C@@H](CC(C)C)C(=O)N[C@@H](CCCCNC(=O)CC[C@H](NC(=O)CCCCCCCCCCCCCCC(=O)O)C(=O)O)C(=O)N[C@@H](CCCCN)C(=O)N[C@H](C(=O)N[C@@H](CC(C)C)C(=O)N[C@@H](CC(C)C)C(=O)N[C@@H](CCC(=O)O)C(=O)N[C@@H](CCC(N)=O)C(=O)N[C@@H](CCC(=O)O)C(=O)N[C@@H](CCCCN)C(=O)N[C@@H](CCC(N)=O)C(=O)N[C@@H](CCCCN)C(=O)N[C@@H](C)C(=O)N[C@@H](CCC(N)=O)C(=O)N[C@@H](CCCNC(=N)N)C(=O)N[C@@H](CCC(=O)O)C(=O)N[C@@H](CCC(N)=O)C(=O)N[C@@H](C)C(=O)N[C@@H](CCC(=O)O)C(=O)N[C@H](C(=O)N[C@@H](CC(N)=O)C(=O)NC(C)(C)C(=O)N[C@@H](CCC(N)=O)C(=O)N[C@H](C(=O)N[C@@H](CC(C)C)C(=O)N[C@@H](C)C(=O)N[C@@H](CCC(N)=O)C(=O)N[C@H](C(N)=O)C(C)C)[C@@H](C)CC)[C@@H](C)O)[C@@H](C)CC)[C@@H](C)CC)C(C)C)C(C)C [compound 74] (H-[NMeI]VLSLD[dV]PIKLK([γGlu-C16 diacid])KILLEQEKQKAQREQAETN[Aib]QILAQV-NH2)
0.19 nM,3 % I,> 250 nM,CC[C@H](C)[C@H](NC)C(=O)N[C@H](C(=O)N[C@@H](CC(C)C)C(=O)N[C@@H](CO)C(=O)N[C@@H](CC(C)C)C(=O)N[C@@H](CC(=O)O)C(=O)N[C@@H](C(=O)N1CCC[C@H]1C(=O)N[C@H](C(=O)N[C@@H](CCCCN)C(=O)N[C@@H](CC(C)C)C(=O)N[C@@H](CCCCNC(=O)CC[C@H](NC(=O)CCCCCCCCCCCCCCC(=O)O)C(=O)O)C(=O)N[C@@H](CCCCN)C(=O)N[C@H](C(=O)N[C@@H](CC(C)C)C(=O)N[C@@H](CC(C)C)C(=O)N[C@@H](CCC(=O)O)C(=O)N[C@@H](CCC(N)=O)C(=O)N[C@@H](CCC(=O)O)C(=O)N[C@@H](CCCCN)C(=O)N[C@@H](CCC(N)=O)C(=O)N[C@@H](CCCCN)C(=O)NC(C)(C)C(=O)N[C@@H](CCC(N)=O)C(=O)N[C@@H](CCCNC(=N)N)C(=O)N[C@@H](CCC(=O)O)C(=O)N[C@@H](CCC(N)=O)C(=O)N[C@@H](C)C(=O)N[C@@H](CCC(=O)O)C(=O)N[C@H](C(=O)N[C@@H](CC(N)=O)C(=O)NC(C)(C)C(=O)N[C@@H](CCC(N)=O)C(=O)N[C@H](C(=O)N[C@@H](CC(C)C)C(=O)N[C@@H](C)C(=O)N[C@@H](CCC(N)=O)C(=O)N[C@H](C(N)=O)C(C)C)[C@@H](C)CC)[C@@H](C)O)[C@@H](C)CC)[C@@H](C)CC)C(C)C)C(C)C [compound 75] (H-[NMeI]VLSLD[dV]PIKLK([γGlu-C16 diacid])KILLEQEKQK[Aib]QREQAETN[Aib]QILAQV-NH2)

# Source: patent publication US20260001928A1 (CORTERIA PHARMACEUTICALS, priority 2022, published 2026)
